The values below come from PubChem BioAssay (NCI).

“And” between values parts separate entries of the source, which are not always exact repeats. Equal values may be shown once.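 These data come from cells grown in 96-well plates and exposed to compound for 48 hours at five concentrations. GI50 is the concentration that inhibits growth by half. TGI denotes the concentration required for complete inhibition of growth.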

Assay in all cases: inhibition of tumour cell growth, NCI panel, 48 h
In experiment [1] the test system is SF-268 CNS.
Experiment [2] concerns A549 NSCLC.
In experiment [3] the test system is MDA-MB-435.
Experiment [4] relates to NCI-H226 lung.
In experiment [5] the test system is U251 CNS.
The subject of experiment [6] is OVCAR-8 ovarian.
For experiment [7], the system named is HT29 colon.
The test system of experiment [8] is SNB-75 CNS.
The test system of experiment [9] is 786-0 renal.
The subject of experiment [10] is OVCAR-5 ovarian.

Take `CO[C@H](C(=O)[C@@H](O)[C@@H](C)O)[C@@H]1Cc2cc3cc(O[C@H]4C[C@@H](O[C@H]5C[C@@H](O)[C@H](O)C(C)O5)[C@H](O)C(C)O4)c(C)c(O)c3c(O)c2C(=O)[C@H]1O[C@H]1C[C@@H](O[C@H]2C[C@@H](O[C@H]3C[C@](C)(O)C(=O)C(C)O3)[C@@H](O)C(C)O2)[C@H](O)C(C)O1` (stereo partly drawn): the GI50 in experiment [1] is 0.065 µM; in experiment [2], 0.106 µM; in experiment [3], 0.0646 µM; in experiment [4], 0.0457 µM; in experiment [5], 0.031 µM; in experiment [6] it was 0.0991 µM. The GI50 is 0.0852 µM in experiment [7], 0.045 µM in [8], 0.101 µM in experiment [9] and 0.115 µM in experiment [10]. The TGI is > 33.2 µM in experiment [1]; > 33.2 µM in experiment [2]; 0.252 µM in [3]; 0.3 µM in experiment [4]; > 33.2 µM in experiment [5]; > 33.2 µM in experiment [6]. Further, the TGI in experiment [7] is 0.866 µM; in experiment [8], 0.211 µM; in experiment [9], 17.1 µM; in experiment [10] it was > 22.1 µM.

On to `Nc1ccccc1SC(C[N+](=O)[O-])c1ccc2c(c1)OCO2` (stereo not drawn), for which the TGI is 20.7 µM in experiment [1]; 8.68 µM in experiment [2]; 9.35 µM in experiment [3]; 32.4 µM in experiment [4]; 8.53 µM in experiment [5]; 11 µM in [6]. Also, the TGI in [7] was determined as 3.81 µM; in [8] it was 7.09 µM; in experiment [9], 3.15 µM; in experiment [10] it was 9.85 µM.

Regarding `Cc1cc(I)cc(CN(C)CCCCN2CCCCC2)c1O`, the GI50 was 12.5 µM in experiment [1]; 27.4 µM in experiment [2]; 3.5 µM in experiment [3]; 25.7 µM in experiment [4]; 13.7 µM in experiment [5]; 36.5 µM in experiment [6]. Besides, the GI50 in [7] was 3.21 µM; in experiment [8], 15 µM; in experiment [9], 12.6 µM; in experiment [10], 14.3 µM. The TGI in [1] was 27.3 µM; in experiment [2], 96.8 µM; in [3], 12.9 µM; in experiment [4], > 100 µM; in experiment [5], 31.2 µM; in experiment [6] it was > 100 µM. For the same molecule, the TGI came out at 14.2 µM in experiment [7], 32.8 µM in experiment [8], 25.4 µM in experiment [9] and 40.5 µM in experiment [10].

For `O=C(Nc1ccccc1OC(F)(F)F)Nc1n[nH]c2ccccc12`, the GI50 in [1] was 16.2 µM; in experiment [2], 15.7 µM; in experiment [3], 51.5 µM; in [4], 26.1 µM; in experiment [5], 31.1 µM; in experiment [6], 29.6 µM. Moreover, the GI50 in [7] is 26.1 µM; in experiment [8], 17.5 µM; in [9] it was 38.7 µM; in experiment [10], 34.3 µM. Further, the TGI in [1] is > 100 µM; in experiment [2], 60.1 µM; in experiment [3] it was > 100 µM; in [4], > 100 µM; in experiment [5] it was > 100 µM; in experiment [6] it was > 100 µM. The TGI is > 100 µM in [7], 49.8 µM in [8], > 100 µM in [9] and > 100 µM in experiment [10].

In the case of `CCC(CO)Nc1nc2ccc(Cl)cc2c2ccccc12` (stereo not drawn), the GI50 in experiment [1] was 10.7 µM; in experiment [2], 6.05 µM; in experiment [3], 6.14 µM; in experiment [4], 11.4 µM; in [5], 5.18 µM; in experiment [6], 11.4 µM. The GI50 is 4.58 µM in experiment [7], 4.38 µM in experiment [8], 7.37 µM in [9] and 5.4 µM in experiment [10]. Moreover, the TGI in [1] was determined as 23.4 µM; in experiment [2] it was 20.4 µM; in experiment [3] it was 18.8 µM; in [4], 31.7 µM; in experiment [5], 18.3 µM; in experiment [6] it was 29.3 µM. Further, the TGI came out at 15.6 µM in experiment [7], 18 µM in [8], 20.1 µM in experiment [9] and 19.7 µM in experiment [10].

Regarding `CSc1nc2c(c(=O)[nH]1)N=C1c3ccccc3C(=O)C1C(c1ccccc1)N2` (stereo not drawn), the GI50 in experiment [1] is 4.55 µM; in experiment [2] it was 6.98 µM; in experiment [3] it was 0.494 µM; in experiment [4], 4.2 µM; in [5] it was 3.52 µM; in [6], 19.1 µM. Further, the GI50 in experiment [7] was 2.97 µM; in [8], 1.27 µM; in experiment [9] it was 6.44 µM; in experiment [10] it was 63.4 µM. Further, the TGI in experiment [1] is > 100 µM; in experiment [2], > 100 µM; in experiment [3], 6.91 µM; in experiment [4], > 100 µM; in [5], > 100 µM; in [6], > 100 µM. Besides, the TGI in [7] is > 100 µM; in experiment [8], 8.78 µM; in experiment [9] it was > 100 µM; in [10] it was > 100 µM.

With `O=C(CC1(O)C(=O)Nc2c(Cl)cc(Cl)cc21)c1ccc(Br)cc1Br` (stereo not drawn), the TGI in experiment [1] is 24 µM; in [2], 57.4 µM; in experiment [3] it was 25.5 µM; in experiment [4], 34.8 µM; in experiment [5], 28.5 µM; in [6] it was 17.6 µM. Further, the TGI in experiment [7] was found to be 40.9 µM; in experiment [8], 36.6 µM; in experiment [9] it was 25.5 µM; in [10], 31.9 µM.

Take `O=C(/C=C/C12c3ccccc3C(c3ccccc31)C1C(=O)NC(=O)C12)c1ccncc1` (stereo not drawn): the GI50 is 2.46 µM in [1]; 13.4 µM in [2]; 2.9 µM in experiment [3]; 2.44 µM in experiment [4]; 1.62 µM in [5]; 2.41 µM in [6]. Besides, the GI50 is 1.96 µM in experiment [7], 2.19 µM in experiment [8], 1.94 µM in experiment [9] and 3.11 µM in experiment [10]. Moreover, the TGI in experiment [1] was found to be 8.48 µM; in experiment [2], 27.2 µM; in experiment [3], 8.36 µM; in experiment [4], 6.98 µM; in experiment [5] it was 3.34 µM; in experiment [6] it was 8.2 µM. In addition, the TGI in experiment [7] amounted to 4.35 µM; in experiment [8] it was 10.9 µM; in experiment [9], 4.76 µM; in experiment [10] it was 13.5 µM.

`Clc1ccc2c(NCCCCNc3nc(N4CCCCC4)nc4ccccc34)ccnc2c1`: the GI50 in experiment [1] is 1.84 µM; in [2], 3.15 µM; in experiment [3] it was 1.67 µM; in experiment [4] it was 3.85 µM; in experiment [5], 2.02 µM; in [6] it was 2.82 µM. Further, the GI50 was 1.63 µM in experiment [7], 1.32 µM in experiment [8], 1.44 µM in experiment [9] and 2.17 µM in experiment [10]. The TGI was determined as 7.56 µM in experiment [1]; 10.3 µM in experiment [2]; 3.2 µM in experiment [3]; 16.5 µM in [4]; 4.56 µM in experiment [5]; 10.4 µM in experiment [6]. Besides, the TGI in experiment [7] came out at 4.86 µM; in [8] it was 3.13 µM; in experiment [9] it was 2.76 µM; in [10] it was 9.23 µM.

Regarding `COC1=CC(c2ccc[nH]2)=N/C1=C\c1[nH]c(C)c(C(=O)OC(C)C)c1C`, the GI50 in experiment [1] is 0.0608 µM; in [2], 0.0505 µM; in experiment [3] it was 0.0349 µM; in [4] it was 0.0795 µM; in experiment [5] it was 0.0355 µM; in [6] it was 0.0397 µM. The GI50 is 0.0236 µM in [7], 0.0805 µM in [8], 0.0476 µM in experiment [9] and 0.144 µM in [10]. Moreover, the TGI in experiment [1] came to 5.25 µM; in experiment [2], 1.05 µM; in [3] it was 0.386 µM; in [4] it was 1.28 µM; in [5] it was 0.82 µM; in experiment [6] it was 1.04 µM. Besides, the TGI amounted to 0.439 µM in experiment [7], 1.96 µM in experiment [8], 1.03 µM in experiment [9] and 1.95 µM in experiment [10].

For the molecule `CCOC(=O)[C@]1(OC(C)=O)C[C@H](OC(C)=O)[C@@H](C(F)COP(=O)(OCc2ccccc2)OCc2ccccc2)O1` (stereo partly drawn), the TGI is > 100 µM in experiment [1]; > 100 µM in experiment [2]; 38.2 µM and > 100 µM in [3]; > 100 µM in [4]; > 100 µM in experiment [5]; > 100 µM in experiment [6]. The TGI is 83 µM and > 100 µM in [7]; > 100 µM in [8]; > 100 µM in experiment [9]; 95 µM and > 100 µM in experiment [10]. Moreover, the GI50 in experiment [3] is 18.3 µM and 79.2 µM; in experiment [5], 35.9 µM and > 100 µM; in experiment [7] it was 28.2 µM and > 100 µM; in [9] it was 39 µM and > 100 µM; in [10], 32.7 µM and > 100 µM.

As to `Cc1ccc2c(=O)cc(-c3ccc(F)cc3)[nH]c2n1`, the TGI in experiment [1] was > 100 µM; in experiment [2] it was > 100 µM; in experiment [3], 22.2 µM; in experiment [4], > 100 µM; in [5], > 100 µM; in experiment [6], > 100 µM. Besides, the TGI in [7] was > 100 µM; in experiment [8], 49.6 µM; in experiment [9], > 100 µM; in experiment [10] it was > 100 µM. The GI50 in experiment [3] is 5.87 µM; in experiment [5], 37.3 µM; in [9] it was 42.2 µM.
